Test results reported in patent US20170231890A1, “Methods And Compositions For Stimulating Collagen Synthesis In Skin Cells” (ELC Management LLC, priority 2016, published 2017).

System: normal human dermal fibroblasts (NHDF) from a donor
Assay: collagen induction assay (Pro-collagen Type I EIA) in aged fibroblasts
Format: cell-based
Conditions: for % Increase in Collagen Induction: 5 days, vs DMEM control
Protocol: Tripeptide-32 was tested at various concentrations for its ability to stimulate collagen production in normal human dermal fibroblasts (“NHDF”) from a donor in a collagen induction assay. Tripeptide-32 was tested at 1× (0.2%) 0.5× (0.1%) and 0.2× (0.04%) concentration diluted in DMEM (“Dulbecco's Modified Eagle Medium”) supplemented with 10% Hyclone® bovine calf serum and 1% Cellgro® penicillin-streptomycin solution (“DMEM”). All percentages are by weight of the total composition.
Cell Growth and Maintenance. Aged NHDF were obtained from ZenBio. Fibroblasts were cultured in DMEM 1× (Life Tech) supplemented with 10% bovine calf serum (“BCS”) (Hyclone) and 1% PenStrep (“PS”) solution (Cellgro). Cells were regularly maintained; subcultured as needed.
Plating Cells. Normal human dermal fibroblasts (NHDF, aged) were plated on a 96-well plate in supplemented DMEM (as indicated above). All rows, except for Row A, were seeded with cells (Row A was left blank to allow for background subtraction). Plate was allowed to incubate at standard conditions (37° C., 5% CO2, 95% humidity) overnight.
Preparation & Treatment of Cells. The following treatments were created in full media (1% P/S and 10% BCS supplemented) DMEM: (1) Laminaria digitata extract (0.5%); Acetyl hexapeptide-8 solution (a mixture of 0.05% Acetyl hexapeptide-8, 99.35% water and the remainder preservatives) (10%); and whey protein (0.1%, solid) with the remainder DMEM (the “Mixture”); (2) Mixture+Tripeptide-32: Laminaria digitata extract (0.5%), Acetyl hexpeptide-8 solution (10%), whey protein (0.1%) and Tripeptide-32 (0.2%) in DMEM at 1× (0.2%), 0.5× (0.1%), and 0.2× (0.04%) concentration; (3) Tripeptide-32 alone at 1× (0.2%), 0.5× (0.1%) and 0.2× (0.04%) concentration. Each treatment (200 ul/well) was added to the corresponding well of the 96-well plate. Treated plate was allowed to incubate at standard conditions (37° C., 5% CO2, 95% humidity) for 5 days.
Assessment of Collagen Production. Collagen production was assessed using the Pro-collagen Type I collagen EIA Kit (Takara) as per manufacturer's protocol, exactly as described. Plate was read using the Gemini M2E plate reader and results were compared.
The combination of Tripeptide-32 and a mixture of Acetyl hexapeptide-8, Laminaria digitata extract and whey protein were tested for collagen stimulation in NHDF from a donor. Tripeptide-32 at a concentration of 0.2% was combined with a mixture of Acetyl hexapeptide-8 solution (0.05% Acetyl hexapeptide-8, 99.35% water, remainder preservatives) (10%); 0.5% Laminaria digitata extract solution, and 0.1% whey protein in Supplemented DMEM.
The tests were performed according to the method in Example 1.

In the case of Ser-Thr-Pro-NH2 [Tripeptide-32], the “collagen synthesis (result in words)” value (0.2× (0.04%)) was “decreased collagen synthesis”, the “% Increase in Collagen Induction” value (0.2× concentration (Tripeptide-32 0.04%)) was −15.39% and the “collagen synthesis (result in words)” value (0.5× (0.1%) and 1× (0.2%) concentrations) was “nearly insignificant increase in collagen synthesis”. The “% Increase in Collagen Induction” value (0.5× concentration (Tripeptide-32 0.1%)) was “+1.17%” and the “% Increase in Collagen Induction” value (1.0× concentration (Tripeptide-32 0.2%)) was “+3.27%”.
